Values of other authors as cited in patent publication US20090291104A1 (Florida Atlantic University, priority 2005, published 2009).

System: K+ channels
Conditions: cited from earlier work

In the case of “N--DPCYEVCLQHTGNV-KACEEACQ (NDPCYEVCLQHTGNVKACEEACQ; Opisthacanthus madagascarienses) [OmTx3]”, the “rank as K+ channel blocker within the Om-toxin set” value is listed as “best blocker of the Om-toxin set”.
